Source: US20190369111A1, “MOLECULAR KINETICS EVALUATION METHOD AND SCREENING METHOD” (Tokyo University of Science Foundation, priority 2016, published 2019)

Target: T1, SOS1 protein (Homo sapiens, UniProt Q07889)
T1 construct: endogenous in cells; host or cells: HeLa cells
T1 sequence (Q07889 1-1333): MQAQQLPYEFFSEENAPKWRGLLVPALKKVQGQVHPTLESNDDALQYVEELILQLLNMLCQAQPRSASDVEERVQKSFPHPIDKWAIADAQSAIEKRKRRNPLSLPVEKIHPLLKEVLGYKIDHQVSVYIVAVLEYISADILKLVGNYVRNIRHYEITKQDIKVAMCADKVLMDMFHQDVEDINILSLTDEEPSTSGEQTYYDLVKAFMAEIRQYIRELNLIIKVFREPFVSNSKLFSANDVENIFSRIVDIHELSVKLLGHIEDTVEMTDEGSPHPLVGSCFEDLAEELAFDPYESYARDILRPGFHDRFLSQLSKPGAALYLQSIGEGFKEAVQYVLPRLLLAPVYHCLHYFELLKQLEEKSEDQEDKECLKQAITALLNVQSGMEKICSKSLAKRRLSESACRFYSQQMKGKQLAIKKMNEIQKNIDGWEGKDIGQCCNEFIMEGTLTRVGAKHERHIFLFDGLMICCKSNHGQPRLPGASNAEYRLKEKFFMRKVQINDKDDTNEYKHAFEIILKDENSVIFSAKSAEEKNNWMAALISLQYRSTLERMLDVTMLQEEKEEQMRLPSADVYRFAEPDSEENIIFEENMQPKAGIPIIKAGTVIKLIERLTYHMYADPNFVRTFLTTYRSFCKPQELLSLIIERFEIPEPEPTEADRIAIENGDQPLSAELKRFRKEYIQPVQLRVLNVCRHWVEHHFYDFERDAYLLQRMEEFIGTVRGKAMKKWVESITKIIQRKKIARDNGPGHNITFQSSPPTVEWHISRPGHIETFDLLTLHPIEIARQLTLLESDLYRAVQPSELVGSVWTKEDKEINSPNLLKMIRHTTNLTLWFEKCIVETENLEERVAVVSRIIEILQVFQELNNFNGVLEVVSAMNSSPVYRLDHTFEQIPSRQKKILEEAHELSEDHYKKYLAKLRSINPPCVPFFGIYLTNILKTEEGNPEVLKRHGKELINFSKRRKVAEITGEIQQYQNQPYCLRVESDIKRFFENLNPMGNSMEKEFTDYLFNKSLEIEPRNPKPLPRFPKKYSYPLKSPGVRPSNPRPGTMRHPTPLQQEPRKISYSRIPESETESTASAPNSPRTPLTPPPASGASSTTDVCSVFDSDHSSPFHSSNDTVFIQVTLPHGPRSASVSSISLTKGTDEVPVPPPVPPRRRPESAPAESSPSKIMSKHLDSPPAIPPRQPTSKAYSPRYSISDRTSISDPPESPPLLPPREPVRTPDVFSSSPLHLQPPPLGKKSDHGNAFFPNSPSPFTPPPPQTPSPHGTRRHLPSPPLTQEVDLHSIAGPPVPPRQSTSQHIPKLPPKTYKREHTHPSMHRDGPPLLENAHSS
Test: Amount of SOS1 protein in HeLa cells, Western blot analysis
Format: cell-based
Conditions: 48 hours after addition
Method: HeLa cells were seeded in a 24-well plate at a cell density of 8×10^4 cells/well, and then cultured under conditions of 37° C. and 5 vol % CO2 for 16 hours.
After 16 hours from cell seeding, TUS-007 was added to HeLa cells as follows. As a medium, a serum-free medium (37° C.) in which 1 mass % L-glutamine solution (Sigma-Aldrich) was added to D-MEM (high D-glucose, phenol red, sodium pyruvate (Wako Pure Chemical Industries, Ltd.)) was used. It is noted that the L-glutamine solution was added immediately before use. A DMSO solution containing TUS-007 was mixed with the medium so that the concentration of DMSO was 1 vol %, and added to each well at 500 μL/well, and cultured under conditions of 37° C. and 5 vol % CO2. As a control, DMSO was used.
The medium was removed 48 hours after addition of TUS-007, and then PBS was added to wash the cells. […]
After electrophoresis, proteins were transferred to a PVDF membrane (Immobion™-P, Millipore) under conditions of 100 V and 2 hours using a tank-type blotting device and a transfer buffer (25 mM Tris-HCl, 195 mM glycine, 0.01% SDS, 15% methanol). […] Subsequently, the membrane was treated with a chemiluminescence reagent Immobilon™ Western (Millipore), and then chemiluminescence was detected using a lumino image analyzer LAS-3000 (FUJIFILM Corporation). […]

CC[C@@H](C)[C@H](NC(=O)CCCCCCNC(=O)[C@H](CC(C)C)NC(=O)CNC(=O)c1cc(Cl)ccc1Cl)C(=O)Nc1ccc2[nH]c(Cc3c[nH]c4ccccc34)nc2c1 [TUS-007]
amount of SOS1 protein: not reduced
